Test results published in patent publication US20040072871A1, “Novel thiophene derivatives, their process of preparation and the pharmaceutical compositions which comprise them” (priority 2002, published 2004).
Structures can show the parent of a compound that is named as a salt.

Tests used:
MMP-13 = MMP-13 (Homo sapiens, UniProt P45452); assay: MMP-12 test adapted to MMP-13; type: biochemical
Procedure: (§1) The inhibitory activity of the compounds of formula (I) with regard to metalloproteinase-12 is evaluated by testing the ability of the compounds of the invention to inhibit the proteolysis of a peptide substrate by MMP-12.
(§2) The inhibitory activity of a compound of formula (I) is expressed as IC50 value, which represents the concentration of inhibitor at which a degree of inhibition of the metalloproteinase of 50% is observed.
(§3) The reaction begins with the sequential addition of 41 μl of substrate FP-1 (final concentration of 10 μM) to a buffer solution of 50 mM of Tris-HCl and 10 mM of CaCl2, which comprises 5 mM of hydroxamic acid and 5 μl of the enzyme diluted in a 0.005% Brij-35 buffer solution. The microplates are incubated for 20 minutes at ambient temperature. The compounds of the invention are tested at concentrations varying from 0.3 to 30 μM.
(§4) The measurement of the amount of proteolysis of the peptide substrate is monitored by a measurement of absorbance at 405 nm using a microplate spectrophotometer, at ambient temperature. The IC50 values are calculated from curves in which the percentage of the catalytic activity relative to the control is represented on the […] and the concentration of inhibitor is represented on the Y axis.
The test described above for the inhibition of MMP-12 is adapted and used to determine the ability of the compounds of formula (I) to inhibit the metalloproteinases MMP-1, MMP-2, MMP-3, MMP-7, MMP-9, MMP-13 and MMP-14. […] More specifically, the compounds of the present invention generally show a selectivity with a factor of greater than 50 with respect to the metalloproteinases mentioned above, except towards MMP-13. Thus, the compounds of the present invention also show an inhibitory activity with regard to MMP-13, making it possible to also use the pharmaceutical compositions comprising one or more compounds of the invention in the treatment of pathologies related to activity of MMP-13. Mention may be made, among these pathologies, by way of indication and without implied limitation, of cancer, osetoporosis, osteoarthritis, arthritis, rheumatoid arthritis, atherosclerosis, multiple sclerosis, cardiac insufficiency, asthma and chronic obstructive pulmonary disease.

MMP-12 = MMP-12 (Homo sapiens, UniProt P39900); assay: In vitro inhibition of proteolysis of fluorogenic peptide substrate FP-1 by MMP-12; type: biochemical; settings: substrate FP-1 10 μM, 20 minutes at ambient temperature, compounds tested 0.3 to 30 μM
Chain of MMP-12 (P39900 106-470): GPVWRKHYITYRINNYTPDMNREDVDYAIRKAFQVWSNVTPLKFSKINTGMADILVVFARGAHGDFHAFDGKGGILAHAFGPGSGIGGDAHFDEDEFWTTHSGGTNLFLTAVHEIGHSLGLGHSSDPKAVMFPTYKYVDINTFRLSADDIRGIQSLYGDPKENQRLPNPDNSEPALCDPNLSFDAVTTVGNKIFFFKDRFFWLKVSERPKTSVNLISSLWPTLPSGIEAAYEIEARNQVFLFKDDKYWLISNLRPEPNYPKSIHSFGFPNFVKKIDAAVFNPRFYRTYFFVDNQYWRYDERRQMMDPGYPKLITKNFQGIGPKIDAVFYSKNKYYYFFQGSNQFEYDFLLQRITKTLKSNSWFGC
Procedure: as §1, §2, §3, §4

[1] = Solubility remark on the isolated sodium salt; type: physicochemical; settings: sodium salt form, remark in the synthesis
Procedure: 1.2 ml of water and 30.5 mg of lithium hydroxide (5 equivalents) are added to a solution of 118 mg of the compound obtained in the preceding Stage 1 in 1.5 ml of methanol. The reaction medium is stirred at 50° C. for 2 hours and then concentrated under reduced pressure. The residue obtained is taken up in ether and the insoluble material is removed. The ethereal solution, after several treatments with acid and base, results in the formation of a precipitate, which is isolated.

SMILES	IC50 (MMP-13) [µM]	IC50 (MMP-12) [µM]	solubility [1]
O=C(O)Cc1cccc(CNC(=O)c2cc(-c3ccc(OC(F)(F)F)cc3)cs2)c1 [Example 41, 2-[3-({[4-(4-Trifluoromethoxyphenyl)thien-2-yl]carboxamido}-methyl)phenyl]acetic acid]	5.17	0.883	
O=C(NCC1CCC(C(=O)O)CC1)c1cc(-c2ccc(OC(F)(F)F)cc2)cs1 (stereo not shown) [Example 43, 4-({[4-(4-Trifluoromethoxyphenyl)thien-2-yl]carboxamido}-methyl)cyclohexanecarboxylic acid]	5.37	0.715	
O=C(O)c1ccc(CNC(=O)c2cc(-c3ccc(OC(F)(F)F)cc3)cs2)nc1 [Example 45, 6-({[4-(4-Trifluoromethoxyphenyl)thien-2-yl]carboxamido}-methyl)nicotinic acid]	2.85	0.92	
O=C(O)c1ccc(CNC(=O)c2cc(-c3ccc(OC(F)(F)F)cc3)cs2)cc1 [Example 47, 4-({[4-(4-Trifluoromethoxyphenyl)thien-2-yl]carboxamido}-methyl)benzoic acid]	3.59	0.436	
O=C(O)Cc1ccc(NC(=O)c2cc(-c3ccc(OC(F)(F)F)cc3)cs2)cc1 [Example 55, (4-{[4-(4-Trifluoromethoxyphenyl)thien-2-yl]carboxamido}-phenyl)acetic acid]	15.8	0.615	
O=C(O)CCc1cccc(CNC(=O)c2cc(-c3ccc(OC(F)(F)F)cc3)cs2)c1 [Example 65, 3-[3-({[4-(4-Trifluoromethoxyphenyl)thien-2-yl]carboxamido}-methyl)phenyl]propanoic acid]	2.9	0.685	
O=C(NCCN1CCOCC1)c1cc(-c2ccc(-c3cccc(O)c3)cc2)cs1 [Example 74, 4-[4-(3-Hydroxyphenyl)phenyl]-N-(2-morpholin-4-ylethyl)thiophene-2-carboxamide]	6.25	0.465	
CC(=O)c1cccc(-c2ccc(-c3csc(C(=O)NCCN4CCOCC4)c3)cc2)c1 [Example 76]	3.7	0.48	
O=C(O)Cc1ccc(CNC(=O)c2cc(-c3ccc(Oc4ccccc4)cc3)cs2)cc1 [Example 81, 2-[4-({[4-(4-Phenoxyphenyl)thien-2-yl]carboxamido}methyl)phenyl]-acetic acid]	3.7	0.5	
O=C(NCc1cc(F)c(O)c(F)c1)c1cc(-c2ccc(OC(F)(F)F)cc2)cs1 [Example 84, N-(3,5-Difluoro-4-hydroxybenzyl)-4-(4-trifluoromethoxyphenyl)-thiophene-2-carboxamide]	3.06	0.56	
O=C(NC[C@H]1CC[C@H](C(=O)O)CC1)c1cc(-c2ccc(OC(F)(F)F)cc2)cs1 [Example 99, trans-4-({[4-(4-Trifluoromethoxyphenyl)thien-2-yl]carboxamido}-methyl)cyclohexanecarboxylic acid, Sodium Salt]	5	0.45	
O=C(NCCN1CCOCC1)c1cc(-c2ccc(-c3cccc(CO)c3)cc2)cs1 [Example 101, 4-{4-[3-(Hydroxymethyl)phenyl]phenyl}-N-(2-morpholin-4-ylethyl)-thiophene-2-carboxamide]	3.7	0.99	
O=C(O)Cc1ccc(CNC(=O)c2cc(-c3ccc(-c4ccccc4O)cc3)cs2)cc1 [Example 115]	3.32	0.25	
O=C(NCCN1CCOCC1)c1cc(-c2ccc(-c3ccccc3F)cc2)cs1 [Example 120, 4-[4-(2-Fluorophenyl)phenyl]-N-(2-morpholin-4-ylethyl)thiophene-2-carboxamide]	6.1	0.66	
O=C(O)CC[C@H]1CC[C@H](NC(=O)c2cc(-c3ccc(OC(F)(F)F)cc3)cs2)CC1 [Example 129, trans-3-(4-{[4-(4-Trifluoromethoxyphenyl)thien-2-yl]-carboxamido}cyclohexyl)propanoic acid]	6.2	0.78	
O=C(O)CC1CCC(CNC(=O)c2cc(-c3ccc(OC(F)(F)F)cc3)cs2)CC1 (stereo not shown) [Example 131, [4-({[4-(4-Trifluoromethoxyphenyl)thien-2-yl]carboxamido}methyl)-cyclohexyl]acetic acid]	3.3	0.425	
O=C(NCc1ccc(O)c(C(=O)O)c1)c1cc(-c2ccc(OC(F)(F)F)cc2)cs1 [Example 133, 2-Hydroxy-({[4-(4-trifluoromethoxyphenyl)thien-2-yl]-carboxamido}methyl)benzoic acid]	2.65	0.95	
O=C(O)Cc1ccc(-c2ccc(-c3csc(C(=O)NCCN4CCOCC4)c3)cc2)cc1.[Na+] [Example 146, {4′-[5-(2-Morpholin-4-ylethylcarbamoyl)thiophen-3-yl]biphenyl-4-yl}-acetic acid, sodium salt]			very low solubility
CC(C)[C@H](NC(=O)c1cc(-c2ccc(OC(F)(F)F)cc2)cs1)C(=O)O [Example 150, (2S)-2-{[4-(4-Trifluoromethoxyphenyl)thien-2-yl]carboxamido}-3-methylbutanoic acid]	10.1	0.78	

Other lines, results leading:

IC50 (MMP-13) [µM]	IC50 (MMP-12) [µM]	solubility [1]	SMILES
0.285	0.022		O=C(NC[C@H]1CC[C@H](C(=O)O)CC1)c1cc(-c2ccc(-c3ccncc3)cc2)cs1 [Example 70, 4-[({4-[4-(Pyridinyl)phenyl]thien-2-yl}carboxamido)methyl]cyclo-hexanecarboxylic acid hydrochloride]
0.13	0.057		CC(=O)c1ccc(-c2ccc(-c3csc(C(=O)NCCN4CCOCC4)c3)cc2)cc1 [Example 72, 4-[4-(4-Acetylphenyl)phenyl]-N-(2-morpholin-4-ylethyl)thiophene-2-carboxamide]
0.4	0.355		O=C(NCCN1CCOCC1)c1cc(-c2ccc(-c3ccc(F)cc3)cc2)cs1 [Example 73, 4-[4-(4-Fluorophenyl)phenyl]-N-(2-morpholin-4-ylethyl)thiophene-2-carboxamide]
0.27	0.34		CS(=O)(=O)c1ccc(-c2ccc(-c3csc(C(=O)NCCN4CCOCC4)c3)cc2)cc1 [Example 75, 4-[4-(4-Methylsulphonylphenyl)phenyl]-N-(2-morpholin-4-ylethyl)thiophene2-carboxamide]
0.4	0.165		N#CCc1ccc(-c2ccc(-c3csc(C(=O)NCc4ccc(CC(=O)O)cc4)c3)cc2)cc1 [Example 109, 2-[4-({[4-(4′-Cyanomethyl-4-biphenyl)thien-2-yl]carboxamido}-methyl)phenyl]acetic acid]
2.2	0.7		O=C(O)Cc1ccc(CNC(=O)c2cc(-c3ccc(-c4cncnc4)cc3)cs2)cc1 [Example 111, 2-{4-[({4-[4-(Pyrimidin-5-yl)phenyl]thien-2-yl}carboxamido)-methyl]phenyl}acetic acid]
0.31	0.16		CC(=O)c1ccc(-c2ccc(-c3csc(C(=O)NCc4ccc(CC(=O)O)cc4)c3)cc2)c(O)c1 [Example 117, 2-{4-[({4-[4-(4-Acetyl-2-hydroxyphenyl)phenyl]thien-2-yl}-carboxamido)methyl]phenyl}acetic acid]
0.031	0.018		CC(=O)c1ccc(-c2ccc(-c3csc(C(=O)NC[C@H]4CC[C@H](C(=O)O)CC4)c3)cc2)cc1 [Example 123, trans-4-[({4-[4-(4-Acetylphenyl)phenyl]thien-2-yl}carboxamido)-methyl]cyclohexanecarboxylic acid]
0.08	0.042		CC(=O)c1ccc(-c2ccc(-c3csc(C(=O)NCc4ccc(C(=O)O)cn4)c3)cc2)cc1 [Example 135, 6({[4-(4′-Acetyl-4-biphenyl)thien-2-yl]carboxamido}methyl)-nicotinic acid]
